Measurements from the NIST ThermoML archive (doi:10.1016/j.fluid.2015.06.029).
Numbers after ± are expanded uncertainties.

Experiment: refractive index (Na D-line) (dimensionless)
Settings: 303.15 K; 101.33 kPa; Liquid; Standard Abbe refractometry

refractive index | Compound
1.3716 ± 0.0009 | CC(=O)O [acetic acid]
1.3523 ± 0.0009 | CCCCC [pentane]
1.3997 ± 0.0009 | CC(C)CC(=O)O [3-methylbutanoic acid]
1.4047 ± 0.0009 | CCCCC(=O)O [pentanoic acid]
1.3893 ± 0.0009 | CC(C)C(=O)O [2-methylpropanoic acid]
1.3947 ± 0.0009 | CCCC(=O)O [butanoic acid]
1.4823 ± 0.0009 | O=S1(=O)CCCC1 [sulfolane]
1.3829 ± 0.0009 | CCC(=O)O [propanoic acid]
